Source: patent publication US20240009209A1, “PROTEIN-BOUND CANNABINOID FORMULATIONS AND USES THEREOF” (YISSUM RESEARCH DEVELOPMENT COMPANY OF THE HEBREW …, priority 2020, published 2024)

Assay: Plasma CBD after IV administration
Format: in vivo, BALB/C mice
Settings: mice, IV 12 mg/kg
Protocol: A total of 18 female BALB/C mice aged 12 weeks were injected IV with a single dose of 12 mg/kg CBD formulation in cremophor:ethanol.
At the time-points detailed below, 3 mice were euthanized with CO2 and terminal blood was immediately collected from the retro-orbital sinus in labeled 0.5 ml K3 EDTA blood collection tubes (Mini Collect, Greiner-bio-one, Austria). The blood was centrifuged at 2000×g for 10 minutes before plasma was extracted, collected in labeled tubes and frozen at −20° C. immediately after collection. The samples were then stored at −80° C. pending analysis.
Time-points for the blood collection: 2 min, 1, 4, 8, 24 and 48 h.
CBD was extracted from plasma samples that were spiked with cannabigerol (CBG, 1 mg/ml in methanol, Sigma, Cat. C-141-1 Add lot) used as internal standard (IS) followed by dilution of the plasma five-fold in acetonitrile. After vigorous vortex it was centrifuged, and the upper phase was analyzed. Final IS concentration in the samples was 100 ng/ml.
Plasma extracts were analyzed by LC/MS method (Sciex (Framingham, MA, USA) Triple Quad™ 5500 mass spectrometer coupled with a Shimadzu (Kyoto, Japan) UHPLC System). The concentrations were calculated based on a calibration curve of CBD in plasma at a range of 1-1,000 ng/ml having 100 ng/ml of Internal Standard (IS).

For `C=C(C)[C@@H]1CCC(C)=C[C@H]1c1c(O)cc(CCCCC)cc1O` [free CBD, 2-[(1R,6R)-6-Isopropenyl-3-methylcyclohex-2-en1-yl]-5-pentylbenzene-1,3-diol], the “Plasma CBD Mean ± SD” value (24 h) was “BLOD”, the “Plasma CBD Mean ± SD” value (24 h, listed as CBD) was “below the limit of detection” and the “Plasma CBD Mean ± SD” value (48 h) was “BLOD”. The “Plasma CBD Mean ± SD” value (48 h, listed as CBD) was “below the limit of detection”.
